As usually defined, the solubility is the concentration that dissolves in the medium under given conditions. Higher therefore signals a readily soluble substance. What is called Tmax is the time from dosing to the highest level. In general, AUC refers to concentration integrated over time. Broadly, the half-life is the time needed for the level to fall by half in the phase considered. The MRT is a mean duration of stay, worked out from the concentration-time curve. The Cmax is the highest concentration seen after dosing.

Data set [1] in a line: Pharmacokinetics assay in rats. Type of data set: in vivo, SD rats. To be noted: SD rats, intragastric, 50 mg/Kg (as free acid); for CL/F / Tmax / Vd/F / AUC / half-life / MRT / Cmax: both sexes, rat, po; for CL/F: read-out: Clearance CL/F (converted); for Tmax: read-out: Time to peak Tmax; for Vd/F: read-out: Apparent Distribution Volume Vz/F; for AUC: read-out: Area Under Curve AUC; for half-life: read-out: Half-Life t½ (converted); for MRT: read-out: Mean Residence Time MRT; for Cmax: read-out: Plasma Conc. Cmax. Here is the method:
The compounds of the present disclosure were administrated intragastrically to rats to determine the drug concentration in plasma at different time points by HPLC-UV. The pharmacokinetic behavior of the compounds of the present disclosure was studied and evaluated in rats. […] Healthy adult SD rats, male and female in half, were purchased from SINO-BRITSH SIPPR/BK LAB.ANIMAL LTD., Colo., License number: SCXK (Shanghai) 2003-0002 The test compound was diluted with 1% sodium carboxymethyl cellulose to 5 mg/mL (calculated as the free acid form) of suspension before use. Healthy adult SD rats, male and female in half, were divided into 23 groups. […] The plasma samples were stored at −20° C. until analysis. The rats were fed 2 hours after administration. […] Then the mixture was mixed for 3 minute using a vortexer and centrifuged for 10 minutes at 13,500 rpm. 40 μL of the supernatant was analyzed by HPLC-UV. The compartmental model of pharmacokinetics was fitted for the test compounds and the major pharmacokinetic parameters were calculated in which Cmax and tmax were the actually measured values.

A short description of data set [2]: Solubility assay in water, 0.1% hydrochloric acid and methanol. Type of data set: physicochemical. Here is the method: The solubility was characterized by:
The term “very soluble” refers to that 1 g (mL) of solute can be dissolved in less than 1 mL of solvent;
The term “freely soluble” refers to that 1 g (mL) of solute can be dissolved in from 1 mL to 10 mL, not including 10 mL of solvent;
The term “soluble” refers to that 1 g (mL) of solute can be dissolved in from 10 mL to 30 mL, not including 30 mL of solvent;
The term “sparingly soluble” refers to that 1g (mL) of solute can be dissolved in from 30 mL to 100 mL, not including 100 mL of solvent;
The term “slightly soluble” refers to that 1g (mL) of solute can be dissolved in from 100 mL to 1000 mL, not including 1000 mL of solvent;
The term “very slightly soluble” refers to that 1g (mL) of solute can be dissolved in from 1000 mL to 10000 mL, not including 10000 mL of solvent;
The term “practically insoluble or insoluble” refers to that 1g (mL) of solute cannot be dissolved completely in 10000 mL of solvent.

Converted amounts (≈) assume the structure as drawn. Like-named read-outs stand apart in the source and are kept apart here.

As for `CC1=NN(c2ccc3c(c2)CCCC3)C(=O)/C1=N\Nc1cccc(-c2ccc(C(=O)O)o2)c1O` [Example 7d, (Z)-5-(2-hydroxy-3-{N′-[3-methyl-5-oxo-1-(5,6,7,8-tetrahydro-naphthalen-2-yl)-1,5-dihydro-pyrazol-4-ylidene]-hydrazino}-phenyl)-furan-2-carboxylic acid], in data set [1] (50 mg/kg), the “Half-Life t½” value is 7.42 ± 7.19 h, the “Plasma Conc. Cmax” value turned out to be 16.2 ± 3.9 µg/mL and the “Time to peak Tmax” value is on record as 2.5 ± 1.0 h.
Turning to `CC1=NN(c2ccc3c(c2)CCC3)C(=O)/C1=N\Nc1cccc(-c2csc(C(=O)O)c2)c1O` [Example 21, (Z)-4-{2-hydroxy-3-[N′-(1-indan-5-yl-3-methyl-5-oxo-1,5-dihydro-pyrazol-4-ylidene)-hydrazino]-phenyl}-thiophene-2-carboxylic acid bis-(piperazine)], in data set [1] (50 mg/kg), the “Area Under Curve AUC” value came to 380 ± 109 µg·h/mL, the “Clearance CL/F” value is 0.14 ± 0.04 L/h/kg, the “Half-Life t½” value turned out to be 6.86 ± 0.48 h and the “Mean Residence Time MRT” value was 8.61 ± 0.31 h. Also, in data set [1] (50 mg/kg), the “Plasma Conc. Cmax” value was 61.1 ± 1.38 µg/mL and the “Time to peak Tmax” value amounted to 5.5 ± 1.0 h. Besides, the solubility in data set [2] (0.1% hydrochloric acid) is reported as below 0.001 mg/mL. For the same compound, in data set [2] (methanol), the solubility was 2.416 mg/mL (≈ 5.25 mM). The compound also showed a solubility in data set [2] (water) of 0.814 mg/mL (≈ 1.77 mM).
`CC1=NN(c2ccc3c(c2)CCCC3)C(=O)/C1=N\Nc1cccc(-c2ccc(C(=O)O)o2)c1O` [Example 11, (Z)-5-(2-hydroxy-3-{N′-[3-methyl-5-oxo-1-(5,6,7,8-tetrahydro-naphthalen-2-yl)-1,5-dihydro-pyrazol-4-ylidene]-hydrazino}-phenyl)-furan-2-carboxylic acid bis-(piperazine)]: in data set [1] (50 mg/kg), the “Area Under Curve AUC” value amounted to 270 ± 178 µg·h/mL, the “Clearance CL/F” value is 0.877 ± 1.465 L/h/kg, the “Half-Life t½” value is on record as 12.1 ± 7.19 h and the “Plasma Conc. Cmax” value was 40.2 ± 24.3 µg/mL. Also, the “Time to peak Tmax” value in data set [1] (50 mg/kg) is given as 1.5 ± 0.58 h.
For `CC1=NN(c2ccc3c(c2)CCC3)C(=O)/C1=N\Nc1cccc(-c2cccc(C(=O)O)c2)c1O` [Example 3, (Z)-2′-hydroxy-3′-[N′-(1-indan-5-yl-3-methyl-5-oxo-1,5-dihydro-pyrazol-4-ylidene)-hydrazino]-biphenyl-3-carboxylic acid bis-(piperazine)], in data set [1] (50 mg/kg), the “Area Under Curve AUC” value stood at 842 ± 185 µg·h/mL, the “Half-Life t½” value worked out at 8.87 ± 0.78 h, the “Mean Residence Time MRT” value was 13.0 ± 0.9 h and the “Plasma Conc. Cmax” value is 79 ± 9.3 µg/mL. Besides, in data set [1] (SD, plasma, 50 mg/kg), the CL/F was 0.062 L/h/kg and the Tmax came out at 5.5 ± 1 h. This compound also gave a solubility in data set [2] (0.1% hydrochloric acid) below 0.001 mg/mL. Also, in data set [2] (methanol), the solubility was determined as 1.534 mg/mL (≈ 3.38 mM). In addition, the solubility in data set [2] (water) worked out at 2.290 mg/mL (≈ 5.04 mM).
As to `CC1=NN(c2ccc3c(c2)CCC3)C(=O)/C1=N\Nc1cccc(-c2csc(C(=O)O)c2)c1O.CCNCC.CCNCC` [Example 20, (Z)-4-{2-hydroxy-3-[N′-(1-indan-5-yl-3-methyl-5-oxo-1,5-dihydro-pyrazol-4-ylidene)-hydrazino]-phenyl}-thiophene-2-carboxylic acid bis-(diethylamine)], in data set [1] (in vivo), the Vd/F was determined as 2.05 ± 0.68 L/kg, the area under the curve (AUC) turned out to be 275 ± 116 µg·h/mL, the CL/F was 0.21 L/h/kg and the half-life is 7.24 ± 2.45 h. Besides, in data set [1] (in vivo), the MRT was 7.59 ± 1.33 h, the Cmax amounted to 46.1 ± 15.7 µg/mL and the Tmax turned out to be 4.5 ± 1 h.
Turning to `CC1=NN(c2ccc3c(c2)CCC3)C(=O)/C1=N\Nc1cccc(-c2ccc(C(=O)O)o2)c1O.CCNCC.CCNCC` [Example 17, (Z)-5-{2-hydroxy-3-[N′-(1-indan-5-yl-3-methyl-5-oxo-1,5-dihydro-pyrazol-4-ylidene)-hydrazino]-phenyl}-furan-2-carboxylic acid bis-(diethylamine)], in data set [1] (in vivo), the Vd/F is 8.16 ± 11.1 L/kg, the AUC is 138 ± 33 µg·h/mL, the CL/F is 0.38 L/h/kg and the half-life was 12.7 ± 14.7 h. Besides, in data set [1] (in vivo), the MRT was 14 ± 12 h, the Cmax was 21.5 ± 10.5 µg/mL and the Tmax was 3.38 ± 3.04 h.
On to `CC1=NN(c2ccc3c(c2)CCC3)C(=O)/C1=N\Nc1cccc(-c2cccc(C(=O)O)c2)c1O.CCNCC.CCNCC` [Example 2, (Z)-2′-hydroxy-3′-[N′-(1-indan-5-yl-3-methyl-5-oxo-1,5-dihydro-pyrazol-4-ylidene)-hydrazino]-biphenyl-3-carboxylic acid bis-(diethylamine)], for which, in data set [1] (in vivo), the Vd/F came out at 0.83 ± 0.16 L/kg, the AUC was found to be 833 ± 64 µg·h/mL, the CL/F is 0.06 L/h/kg and the half-life is 9.55 ± 1.44 h. Also, in data set [1] (in vivo), the MRT came to 11.1 ± 0.76 h, the Cmax was determined as 83.9 ± 11.2 µg/mL and the Tmax is 5 ± 1.16 h.
Consider `CC1=NN(c2ccc3c(c2)CCC3)C(=O)/C1=N\Nc1cccc(-c2ccc(C(=O)O)o2)c1O` [Example 18, (Z)-5-{2-hydroxy-3-[N′-(1-indan-5-yl-3-methyl-5-oxo-1,5-dihydro-pyrazol-4-ylidene)-hydrazino]-phenyl}-furan-2-carboxylic acid bis-(piperazine)], for which, in data set [1] (50 mg/kg), the “Area Under Curve AUC” value was 119 ± 102 µg·h/mL, the “Clearance CL/F” value came out at 0.63 ± 0.35 L/h/kg, the “Half-Life t½” value was 3.99 ± 1.60 h and the “Mean Residence Time MRT” value is given as 5.31 ± 2.64 h. Further, in data set [1] (50 mg/kg), the “Plasma Conc. Cmax” value came to 23.3 ± 11.6 µg/mL and the “Time to peak Tmax” value stood at 1.63 ± 1.63 h. The compound also displayed a solubility in data set [2] (0.1% hydrochloric acid) below 0.001 mg/mL. The solubility in data set [2] (methanol) came to 6.096 mg/mL (≈ 13.7 mM). The compound also registered a solubility in data set [2] (water) of 2.741 mg/mL (≈ 6.17 mM).
Regarding `CC1=NN(c2ccc(C)c(C)c2)C(=O)/C1=N\Nc1cccc(-c2cccc(C(=O)O)c2)c1O` [Eltrombopag, eltrombopag, reference compound], in data set [1] (SD, plasma, 50 mg/kg), the Vd/F came to 0.95 ± 0.42 L/kg, the AUC was found to be 680 ± 255 µg·h/mL, the CL/F is 0.089 L/h/kg and the half-life is 7.82 ± 1.34 h. Moreover, in data set [1] (SD, plasma, 50 mg/kg), the MRT was 11.2 ± 2.6 h, the highest concentration (Cmax) turned out to be 61.8 ± 18.7 µg/mL and the Tmax came out at 5.5 ± 1 h.
Take `CC1=NN(c2ccc3c(c2)CCC3)C(=O)/C1=N\Nc1cccc(-c2csc(C(=O)O)c2)c1O.NCCO.NCCO` [Example 19, (Z)-4-{2-hydroxy-3-[N′-(1-indan-5-yl-3-methyl-5-oxo-1,5-dihydro-pyrazol-4-ylidene)-hydrazino]-phenyl}-thiophene-2-carboxylic acid bis-(ethanolamine)]: in data set [1] (SD, plasma, 50 mg/kg), the Vd/F is 5.47 ± 2.72 L/kg, the AUC is 89.2 ± 7.2 µg·h/mL, the CL/F is 0.88 L/h/kg and the half-life was 5.71 ± 3.68 h. In data set [1] (SD, plasma, 50 mg/kg), the MRT is 7.85 ± 2.92 h, the Cmax was 20.8 ± 17.3 µg/mL and the Tmax came out at 1.81 ± 2.79 h.
For the compound `CC1=NN(c2ccc3c(c2)CCC3)C(=O)/C1=N\Nc1cccc(-c2ccc(C(=O)O)o2)c1O.NCCO.NCCO` [Example 16, (Z)-5-{2-hydroxy-3-[N′-(1-indan-5-yl-3-methyl-5-oxo-1,5-dihydro-pyrazol-4-ylidene)-hydrazino]-phenyl}-furan-2-carboxylic acid bis-(ethanolamine)], in data set [1] (SD, plasma, 50 mg/kg), the Vd/F was 6.33 ± 4.57 L/kg, the AUC worked out at 52.4 ± 48 µg·h/mL, the CL/F was 1.94 L/h/kg and the half-life was 2.08 ± 1.74 h. Moreover, in data set [1] (SD, plasma, 50 mg/kg), the MRT came to 3.84 ± 1.03 h, the Cmax came to 19.6 ± 16.3 µg/mL and the Tmax worked out at 2 ± 0.82 h.

Source of the values: patent US9120762B2, “Salts of bicyclo-substituted pyrazolon azo derivatives, preparation method and use thereof” (Jiangsu Hengrui Medicine Co., Ltd., priority 2009, dated 2015).
